Laboratory results as given in patent US20120009613A1, “PHARMACEUTICAL COMPOSITION FOR MODULATING THE ACTIVITY OF A NOVEL TRIGLYCERIDE HYDROLASE” (Karl-Franzens-Universitat Graz, priority 2004, published 2012).
Each block holds one molecule with its values, some of them ahead of it.

How the values were obtained:
Format in all cases: biochemical
[1] = target: T1, ATGL (Mus musculus, UniProt Q8BJ56); assay: TG hydrolase activity assay, cytosolic fractions of HepG2 cells infected with adenovirus coding for His-tagged ATGL, radiolabeled triolein substrate
T1 construct: a recombinant adenovirus encoding the His-tagged full length mouse ATGL cDNA was constructed; expressed in transfected cells; host or cells: HepG2 cells infected with recombinant adenovirus; cytosolic fraction
T1 sequence (Q8BJ56 1-486): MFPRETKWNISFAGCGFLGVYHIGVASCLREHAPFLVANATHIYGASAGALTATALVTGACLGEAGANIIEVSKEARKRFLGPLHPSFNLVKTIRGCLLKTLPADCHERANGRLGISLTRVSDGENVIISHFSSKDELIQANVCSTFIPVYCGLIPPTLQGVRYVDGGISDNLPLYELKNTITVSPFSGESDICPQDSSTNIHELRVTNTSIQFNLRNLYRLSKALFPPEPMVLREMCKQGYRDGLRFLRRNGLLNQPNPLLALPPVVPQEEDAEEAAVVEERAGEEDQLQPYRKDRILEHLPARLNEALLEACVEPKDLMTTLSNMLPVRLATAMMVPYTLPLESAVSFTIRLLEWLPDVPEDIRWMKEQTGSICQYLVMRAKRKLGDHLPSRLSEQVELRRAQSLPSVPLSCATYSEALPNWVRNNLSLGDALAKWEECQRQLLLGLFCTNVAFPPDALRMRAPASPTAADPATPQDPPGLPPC
Protocol: (§1) Neutral TG lipase activity was measured with triolein as substrate containing [9,10-3H(N)]-triolein (NEN Life Science Products) as radioactive tracer. The substrate for TG lipase activity was prepared by sonication (Virsonic 475) exactly as describeded by Holm et al. (30). Cells were disrupted on ice in lysis buffer (0.25 M sucrose, 1 mM EDTA, 1 mM dithiothreitol, 20 μg/ml leupeptin, 2 μg/ml antipain, 1 μg/ml pepstatin, pH 7) by sonication (Virsonic 475). The cytosolic infranatants were obtained after centrifugation at […], at 4° C. for 60 min. The reaction was performed in a water bath at 37° C. for 60 min with 0.1 ml substrate and 0.1 ml infranatant. The reaction was terminated by adding 3.25 ml of methanol/chloroform/heptane (10:9:7) and 1 ml of 0.1 M potassium carbonate, 0.1 M boric acid, pH 10.5. After centrifugation (800 g, 20 min) the radioactivity in 1 ml of the upper phase was determined by liquid scintillation counting.
A recombinant adenovirus coding for His-tagged ATGL or HSL was used to infect HepG2 cells as described above. For activity assays, the cytosolic fractions of the cells were incubated with a substrate containing radiolabeled triolein in the absence (control) or in the presence of 50 μg/ml orlistat. It can be seen from FIG. 4 that addition of orlistat decreased in ATGL activity by 98%. […]

[2] = target: T2, HSL (Mus musculus, UniProt P54310); assay: TG hydrolase activity assay, cytosolic fractions of HepG2 cells infected with adenovirus coding for His-tagged HSL, radiolabeled triolein substrate; settings: 1M KCl vs absence (control), FIG. 5
T2 construct: His-tag; expressed in transfected cells; host or cells: HepG2 cells infected with recombinant adenovirus; cytosolic fraction
T2 sequence (P54310 1-759): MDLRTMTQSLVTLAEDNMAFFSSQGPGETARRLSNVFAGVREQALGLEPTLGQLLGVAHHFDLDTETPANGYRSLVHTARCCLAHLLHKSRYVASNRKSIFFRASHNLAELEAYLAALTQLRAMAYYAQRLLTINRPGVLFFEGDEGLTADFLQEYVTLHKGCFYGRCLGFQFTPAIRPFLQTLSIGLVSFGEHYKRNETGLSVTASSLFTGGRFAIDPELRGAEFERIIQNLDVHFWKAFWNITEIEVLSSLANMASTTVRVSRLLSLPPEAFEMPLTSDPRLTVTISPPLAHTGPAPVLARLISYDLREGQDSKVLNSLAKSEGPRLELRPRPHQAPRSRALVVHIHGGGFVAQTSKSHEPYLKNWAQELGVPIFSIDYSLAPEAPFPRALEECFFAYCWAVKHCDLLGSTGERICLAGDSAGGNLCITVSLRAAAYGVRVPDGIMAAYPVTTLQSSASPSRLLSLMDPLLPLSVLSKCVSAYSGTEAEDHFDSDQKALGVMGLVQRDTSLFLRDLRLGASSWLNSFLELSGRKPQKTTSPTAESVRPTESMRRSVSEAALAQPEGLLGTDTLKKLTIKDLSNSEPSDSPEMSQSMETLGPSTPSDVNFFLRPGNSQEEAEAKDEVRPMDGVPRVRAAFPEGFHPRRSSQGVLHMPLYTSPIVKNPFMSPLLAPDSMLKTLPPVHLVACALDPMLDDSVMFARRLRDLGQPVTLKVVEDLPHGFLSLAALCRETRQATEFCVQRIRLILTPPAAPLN
Protocol: as §1
A recombinant adenovirus coding for His-tagged ATGL or HSL was used to infect HepG2 cells. The infection led to a 7- and 12-fold increase in TG hydrolase activity for HSL and ATGL, respectively, compared to LacZ-infected cells. For activity assays, the cytosolic fractions of the cells were incubated with a substrate containing radiolabeled triolein in the absence (control) or in the presence of the indicated salt concentrations.

[3] = target: T3, human ATGL (hATGL) (Homo sapiens, UniProt Q96AD5); assay: TGH activity assay of hATGL with hCGI-58 expressed in COS-7 cells; settings: human proteins; dose-dependent; FIG. 6f
T3 construct: The PCR products, containing the complete open reading frame, were ligated; expressed in transfected cells; host or cells: COS-7, transient transfection; cytoplasmic extracts
T3 sequence (Q96AD5 2-504): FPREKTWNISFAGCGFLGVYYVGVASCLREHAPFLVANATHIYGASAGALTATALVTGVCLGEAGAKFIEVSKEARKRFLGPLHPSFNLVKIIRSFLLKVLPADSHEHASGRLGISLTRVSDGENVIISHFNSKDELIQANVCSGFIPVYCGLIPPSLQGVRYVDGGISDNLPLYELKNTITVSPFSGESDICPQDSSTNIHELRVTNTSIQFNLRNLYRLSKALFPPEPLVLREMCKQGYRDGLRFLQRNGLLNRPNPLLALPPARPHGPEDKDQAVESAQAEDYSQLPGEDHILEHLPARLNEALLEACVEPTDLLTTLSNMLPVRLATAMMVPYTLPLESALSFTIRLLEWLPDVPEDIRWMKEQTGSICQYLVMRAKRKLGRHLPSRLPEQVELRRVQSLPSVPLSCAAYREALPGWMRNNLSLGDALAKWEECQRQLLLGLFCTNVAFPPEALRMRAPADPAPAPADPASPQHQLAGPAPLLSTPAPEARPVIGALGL
T3 sequence (Q8WTS1 1-349 partner): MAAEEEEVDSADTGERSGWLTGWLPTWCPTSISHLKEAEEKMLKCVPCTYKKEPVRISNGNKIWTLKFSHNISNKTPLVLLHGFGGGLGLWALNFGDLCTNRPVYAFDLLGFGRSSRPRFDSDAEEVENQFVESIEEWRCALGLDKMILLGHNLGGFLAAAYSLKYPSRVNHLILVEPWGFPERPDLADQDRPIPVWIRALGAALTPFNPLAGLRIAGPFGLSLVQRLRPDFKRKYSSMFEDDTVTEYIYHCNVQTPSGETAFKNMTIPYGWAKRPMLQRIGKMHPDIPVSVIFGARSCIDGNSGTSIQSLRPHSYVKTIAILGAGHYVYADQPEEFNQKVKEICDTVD
Description: In comparison, transfection of cells with ATGL and HSL increased TGH activities 4- and 9-fold, respectively. In order to investigate whether the effect of CGI-58 is due to endogenous TGH activity of CGI-58 or if the protein affects the activity of other lipases, the extracts of CGI-58 and ATGL or HSL-expressing cells were mixed together and subjected to TGH activity determinations (FIG. 6c). […] The activation of ATGL by CGI-58 could also be monitored on the molecular level using the fluorescently labeled lipase-inhibitor NBD-snl TG. By mimicking a TG molecule, this inhibitor covalently binds to active lipases. […]
Expression ofrecombinant proteins in cultured cells for CGI-58 investigations—Monkey embryonic kidney cells (COS-7, ATCC CRL-1651) were maintained in Dulbecco's minimal essential medium (DMEM) (Gibco, Invitrogen life technologies, Carlsbad, Calif.) containing 10% fetal calf serum (FCS) (Sigma-Aldrich Chemie GmbH) and antibiotics at 37° C. in humidified air (89-91% saturation) and 5% C02. […] Cells were analyzed two days after transfection.
FIG. 6. […] (a) His-tagged proteins were detected in cytoplasmic extracts of transfected cells by Western blotting using a monoclonal anti-His antibody. (b) TGH activity of cytoplasmic extracts of transfected cells was determined using a radiolabeled triolein substrate. […] The molar ratio ATGL/CGI-58 was determined as described in (d).

Molecule: [Cl-].[K+] [KCl, potassium chloride]
change in ATGL activity (stimulated) ([1]; 1M KCl vs absence (control), FIG. 5): +84% | change in HSL activity [2]: −68%

Molecule: CCCCCCCCCCC[C@@H](C[C@@H]1OC(=O)[C@H]1CCCCCC)OC(=O)[C@H](CC(C)C)NC=O [orlistat]
decrease in ATGL activity ([1]; 50 μg/ml orlistat vs absence (control), FIG. 4): 98%

magnitude of the maximal effect on ATGL activation [3]: 6 fold
B1: hCGI-58: human CGI-58 expressed in COS-7 cells (protein, UniProt Q8WTS1 2-349, looked up)
1-acylglycerol-3-phosphate …: AAEEEEVDSADTGERSGWLTGWLPTWCPTSISHLKEAEEKMLKCVPCTYKKEPVRISNGNKIWTLKFSHNISNKTPLVLLHGFGGGLGLWALNFGDLCTNRPVYAFDLLGFGRSSRPRFDSDAEEVENQFVESIEEWRCALGLDKMILLGHNLGGFLAAAYSLKYPSRVNHLILVEPWGFPERPDLADQDRPIPVWIRALGAALTPFNPLAGLRIAGPFGLSLVQRLRPDFKRKYSSMFEDDTVTEYIYHCNVQTPSGETAFKNMTIPYGWAKRPMLQRIGKMHPDIPVSVIFGARSCIDGNSGTSIQSLRPHSYVKTIAILGAGHYVYADQPEEFNQKVKEICDTVD
